According to PubChem BioAssay (NCI):
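A five-concentration, 48-hour dose response in 96-well plates underlies each endpoint, interpolated linearly between surrounding concentrations. At the GI50, growth is halved. TGI: total growth inhibition.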

Legend:
Experiment in all cases: DTP human tumour cell line panel, 48 h; in the data active = GI50 below about 0.43 µM; inactive = the rest
HS 578T breast = test system: HS 578T breast
PC-3 prostate = test system: PC-3 prostate
HOP-62 NSCLC = test system: HOP-62 NSCLC
SK-MEL-5 melanoma = test system: SK-MEL-5 melanoma
NCI/ADR-RES ovarian = test system: NCI/ADR-RES ovarian
M14 melanoma = test system: M14 melanoma
MALME-3M melanoma = test system: MALME-3M melanoma
IGROV1 ovarian = test system: IGROV1 ovarian
RPMI-8226 leukemia = test system: RPMI-8226 leukemia
SN12C renal = test system: SN12C renal
HL-60(TB) leukemia = test system: HL-60(TB) leukemia
MDA-MB-231 breast = test system: MDA-MB-231 breast
SF-539 CNS = test system: SF-539 CNS
SK-OV-3 ovarian = test system: SK-OV-3 ovarian
BT-549 breast = test system: BT-549 breast
DU-145 prostate = test system: DU-145 prostate
RXF 393 renal = test system: RXF 393 renal
NCI-H522 lung = test system: NCI-H522 lung
MDA-MB-435 = test system: MDA-MB-435
SF-268 CNS = test system: SF-268 CNS
HOP-92 NSCLC = test system: HOP-92 NSCLC
786-0 renal = test system: 786-0 renal
NCI-H460 lung = test system: NCI-H460 lung
OVCAR-4 ovarian = test system: OVCAR-4 ovarian
TK-10 renal = test system: TK-10 renal
CAKI-1 renal = test system: CAKI-1 renal
UO-31 renal = test system: UO-31 renal
SNB-19 CNS = test system: SNB-19 CNS
CCRF-CEM leukemia = test system: CCRF-CEM leukemia
LOX IMVI melanoma = test system: LOX IMVI melanoma
HT29 colon = test system: HT29 colon
NCI-H23 lung = test system: NCI-H23 lung
SNB-75 CNS = test system: SNB-75 CNS
EKVX NSCLC = test system: EKVX NSCLC
SK-MEL-28 melanoma = test system: SK-MEL-28 melanoma
SW-620 colon = test system: SW-620 colon
SR leukemia = test system: SR leukemia
A498 renal = test system: A498 renal
OVCAR-5 ovarian = test system: OVCAR-5 ovarian
OVCAR-8 ovarian = test system: OVCAR-8 ovarian
UACC-257 melanoma = test system: UACC-257 melanoma
NCI-H226 lung = test system: NCI-H226 lung
A549 NSCLC = test system: A549 NSCLC
KM12 colon = test system: KM12 colon
UACC-62 melanoma = test system: UACC-62 melanoma
SF-295 CNS = test system: SF-295 CNS
U251 CNS = test system: U251 CNS
HCT-116 colon = test system: HCT-116 colon
MOLT-4 leukemia = test system: MOLT-4 leukemia
SK-MEL-2 melanoma = test system: SK-MEL-2 melanoma
OVCAR-3 ovarian = test system: OVCAR-3 ovarian
K-562 leukemia = test system: K-562 leukemia
ACHN renal = test system: ACHN renal
HCC-2998 colon = test system: HCC-2998 colon
MCF7 breast = test system: MCF7 breast
COLO 205 colon = test system: COLO 205 colon
HCT-15 colon = test system: HCT-15 colon
T-47D breast = test system: T-47D breast

COc1ccc(OC)c(Nc2nc3ccccc3c3c2-c2ccc(OC)cc2C3=O)c1
inactive: GI50 (HS 578T breast) > 100 µM | GI50 (PC-3 prostate) > 100 µM | GI50 (HOP-62 NSCLC) > 100 µM | GI50 (SK-MEL-5 melanoma) > 100 µM | GI50 (NCI/ADR-RES ovarian) > 100 µM | GI50 (M14 melanoma) > 100 µM | GI50 (MALME-3M melanoma) > 100 µM | GI50 (IGROV1 ovarian) > 100 µM | GI50 (RPMI-8226 leukemia) > 100 µM | GI50 (SN12C renal) > 100 µM | GI50 (HL-60(TB) leukemia) > 100 µM | GI50 (MDA-MB-231 breast) > 100 µM | GI50 (SF-539 CNS) > 100 µM | GI50 (SK-OV-3 ovarian) > 100 µM | GI50 (BT-549 breast) > 100 µM | GI50 (DU-145 prostate) > 100 µM | GI50 (RXF 393 renal) > 100 µM | GI50 (NCI-H522 lung) > 100 µM | GI50 (MDA-MB-435) > 100 µM | GI50 (SF-268 CNS) > 100 µM | GI50 (HOP-92 NSCLC) > 100 µM | GI50 (786-0 renal) > 100 µM | GI50 (NCI-H460 lung) > 100 µM | GI50 (OVCAR-4 ovarian) > 100 µM | GI50 (TK-10 renal) > 100 µM | GI50 (CAKI-1 renal) > 100 µM | GI50 (UO-31 renal) > 100 µM | GI50 (SNB-19 CNS) > 100 µM | GI50 (CCRF-CEM leukemia) > 100 µM | GI50 (LOX IMVI melanoma) > 100 µM | GI50 (HT29 colon) > 100 µM | GI50 (NCI-H23 lung) > 100 µM | GI50 (SNB-75 CNS) > 100 µM | GI50 (EKVX NSCLC) > 100 µM | GI50 (SK-MEL-28 melanoma) > 100 µM | GI50 (SW-620 colon) > 100 µM | GI50 (SR leukemia) 40.7 µM | GI50 (A498 renal) > 100 µM | GI50 (OVCAR-5 ovarian) > 100 µM | GI50 (OVCAR-8 ovarian) > 100 µM | GI50 (UACC-257 melanoma) > 100 µM | GI50 (NCI-H226 lung) > 100 µM | GI50 (A549 NSCLC) > 100 µM | GI50 (KM12 colon) > 100 µM | GI50 (UACC-62 melanoma) > 100 µM | GI50 (SF-295 CNS) > 100 µM | GI50 (U251 CNS) > 100 µM | GI50 (HCT-116 colon) > 100 µM | GI50 (MOLT-4 leukemia) > 100 µM | GI50 (SK-MEL-2 melanoma) > 100 µM | GI50 (OVCAR-3 ovarian) > 100 µM | GI50 (K-562 leukemia) > 100 µM | GI50 (ACHN renal) > 100 µM | GI50 (HCC-2998 colon) > 100 µM | GI50 (MCF7 breast) > 100 µM | GI50 (COLO 205 colon) > 100 µM | GI50 (HCT-15 colon) > 100 µM | GI50 (T-47D breast) > 100 µM
> 100 µM: TGI (HS 578T breast) | TGI (PC-3 prostate) | TGI (HOP-62 NSCLC) | TGI (SK-MEL-5 melanoma) | TGI (NCI/ADR-RES ovarian) | TGI (M14 melanoma) | TGI (MALME-3M melanoma) | TGI (IGROV1 ovarian) | TGI (RPMI-8226 leukemia) | TGI (SN12C renal) | TGI (HL-60(TB) leukemia) | TGI (MDA-MB-231 breast) | TGI (SF-539 CNS) | TGI (SK-OV-3 ovarian) | TGI (BT-549 breast) | TGI (DU-145 prostate) | TGI (RXF 393 renal) | TGI (NCI-H522 lung) | TGI (MDA-MB-435) | TGI (SF-268 CNS) | TGI (HOP-92 NSCLC) | TGI (786-0 renal) | TGI (NCI-H460 lung) | TGI (OVCAR-4 ovarian) | TGI (TK-10 renal) | TGI (CAKI-1 renal) | TGI (UO-31 renal) | TGI (SNB-19 CNS) | TGI (CCRF-CEM leukemia) | TGI (LOX IMVI melanoma) | TGI (HT29 colon) | TGI (NCI-H23 lung) | TGI (SNB-75 CNS) | TGI (EKVX NSCLC) | TGI (SK-MEL-28 melanoma) | TGI (SW-620 colon) | TGI (SR leukemia) | TGI (A498 renal) | TGI (OVCAR-5 ovarian) | TGI (OVCAR-8 ovarian) | TGI (UACC-257 melanoma) | TGI (NCI-H226 lung) | TGI (A549 NSCLC) | TGI (KM12 colon) | TGI (UACC-62 melanoma) | TGI (SF-295 CNS) | TGI (U251 CNS) | TGI (HCT-116 colon) | TGI (MOLT-4 leukemia) | TGI (SK-MEL-2 melanoma) | TGI (OVCAR-3 ovarian) | TGI (K-562 leukemia) | TGI (ACHN renal) | TGI (HCC-2998 colon) | TGI (MCF7 breast) | TGI (COLO 205 colon) | TGI (HCT-15 colon) | TGI (T-47D breast)
